Data: patent US20100267753A1, “METHODS OF TREATING DISORDERS ASSOCIATED WITH PROTEIN KINASE CK2 ACTIVITY” (priority 2009, published 2010)
Where “and” joins values, the source holds several entries; their conditions need not be identical. Equal entries are not always repeated. Where two headings read alike, the source gives them in different places.

How the values were obtained:
[1] = test system: formalin-induced persistent pain; experiment: Formalin-induced persistent pain model (flinching); format: in vivo, ICR mice; conditions: 3 mg/kg, subcutaneously injected, positive control
Experimental: See Hunskaar, et al., “The formalin test in mice: Dissociation between inflammatory and non-inflammatory pain,” Pain, vol. […] 89, 53-63 (2000). These tests were conducted with ICR mice, in accordance with guidelines established by the International Association for the Study of Pain. Compounds of the invention were used as solutions of about 3-20 mg/mL in aqueous solution at about pH 8. […] The test animals were monitored for at least 40 minutes, during which time the number of flinches occurring during each 5-minute period were observed and recorded. A cohort of 12 animals were used for each dose level of each compound tested.
The compounds were administered orally in a single dose, of 30, 100, and 200 mg/kg, one hour prior to injection of formalin Pain response was measured by flinching frequency.

HIV-1 = experiment: U1 latent infection assay, antiviral (reverse transcriptase); format: cell-based; conditions: U1 latent/induced
Experimental: Histocytic leukemia cell line U937, latently infected with HIV-1, are treated with TNFα to induce virus expression in the presence of test compound. Antiviral activity is determined as a reduction in reverse transcriptase after 72 hr incubation.
(§1) TI=TC/IC; also referred to as Therapeutic Index values (TI) or Antiviral Index (AI)
The histocytic leukemia cell line U937, latently infected with HIV-1, was treated with TNFα to induce virus expression in the presence of test compound. Antiviral activity was determined as a reduction in reverse transcriptase after 72 hr incubation. Temacrazine, an inhibitor of HIV transcription initiation, was used as the positive control for the assay.

[2] = U1 latent infection assay, host cell cytotoxicity; format: cell-based; conditions: human, U1 latent/induced, read-out: TC50
[3] = test system: 91US005 (CCR5-tropic HIV-1 Subtype B virus); experiment: PBMC assay, HIV-1 91US005; format: cell-based; conditions: Virus 91US005, PBMCs
Experimental: (§2) Acute infection of HIV-1 isolates (CXCR4-tropic HIV-1 Subtype B and CCR5-tropic HIV-1 Subtype) using fresh human PBMCs from multiple donors (PMA and IL-2 stimulated). Antiviral activity determined as a reduction in reverse transcriptase after 7-day incubation.
as §1
(§3) Antiviral activity was determined as a reduction in reverse transcriptase after 7-day incubation. AZT, a nucleoside analog reverse transcriptase inhibitor, was used as the positive control for the assay.
(§4) 92HT599 is a CXCR4-tropic HIV-1 Subtype B virus. 91US005 is CCR5-tropic HIV-1 Subtype B virus.

[4] = test system: U937, latently infected with HIV-1 (U1 cells); experiment: U1 latent infection assay, host cell cytotoxicity; format: cell-based; conditions: U1 latent/induced, 72 hr; read-out: TC50 (the source's name)
[5] = test system: 92HT599 (CXCR4-tropic HIV-1 Subtype B virus); experiment: PBMC assay, HIV-1 92HT599; format: cell-based; conditions: Virus 92HT599, PBMCs
Experimental: as §2, §1, §3, §4

fresh human PBMCs = experiment: PBMC assay, host cell cytotoxicity; format: cell-based; conditions: for CC50: PBMCs, read-out: TC50 (the source's name)
[6] = PBMC assay, host cell cytotoxicity; format: cell-based, human; conditions: human; PBMCs; read-out: TC50
[7] = test system: eight CCR5-tropic HIV-1 clinical isolates; experiment: CCR5-tropic HIV-1 clinical isolates in fresh human PBMCs; format: cell-based; conditions: FIG. 5, fresh human PBMCs
[8] = test system: CFA-induced thermal hyperalgesia; experiment: CFA-induced thermal hyperalgesia model (Hargreaves); format: in vivo, ICR mice; conditions: single intraperitoneal dose 50 mg/kg; 1, 2, and 4 hours after administration
Experimental: The observations of pain responses were done blindly.
[…] On day 4, test subjects received a single injection of CFA (20 microliters) subcutaneously in the plantar surface of the left rear paw. CFA was injected subcutaneously into the plantar surface of the left hind paw of each test subject, under isoflurane anesthesia. […] On day 5, thermal responses were measured prior to treatment with the compound and again 1, 2, and 4 hours after treatment with […]. Withdrawal latencies were measured in response to thermal stimulus by the Hargreaves method. Naproxen was used as a positive control.

[9] = Pharmacokinetics in mouse (IV bolus or oral dose); format: in vivo; conditions: mice; for Cmax: read-out: Cmax-obs; for half-life: read-out: t1/2 (converted)
Experimental: The pharmacokinetics properties of drugs were investigated in three species, following an intravenous (IV) bolus or oral (PO) dose of Compound K at the dosages indicated in the chart. Blood samples were collected at predetermined times and the plasma separated. Plasma was separated from the blood samples collected at 5, 15 and 30 minutes and 1, 2, 4, 8 and 24 hours post-dose.
Drug levels were quantified by the LC/MS/MS method described below. Noncompartmental pharmacokinetic analysis was applied for intravenous administration. […] The terminal t1/2 and C0 were calculated using the last three and the first three data points, respectively
Bioanalysis was performed using a Quattro Micro LC/MS/MS instrument in the MRM detection mode, with an internal standard (1S). Briefly, 15 μL plasma samples were prepared for analysis using protein precipitation with 120 μL of acetonitrile. The supernatants were transferred into a 96 well plate and subjected to LC-MS/MS analysis using a Phenomenex Polar-RP HPLC column. The mobile phases were 10 mM NH4HCO3 in water (Solution-A) and 10 mM NH4HCO3 in methanol (Solution-B). The column was initially equilibrated with 25% Solution-B and followed with 100% Solution B over 5 minutes. […] Quantitation of the analytes was performed in the batch mode with two bracketing calibration curves according to the bioanalytical sample list.

[10] = Human immunodeficiency virus 1, 72 h, 72 hr, positive control
[11] = TNFα, reverse transcriptase after 72 hr
[12] = Human immunodeficiency virus 1, PBMC, 168 h, 7-day incubation
[13] = Human immunodeficiency virus 1, PBMC

SMILES: CN1CC[C@]23c4c5ccc(O)c4O[C@H]2[C@@H](O)C=C[C@H]3[C@H]1C5 [morphine, reference compound]
- formalin-induced flinching, first phase [1]: reduced formalin-induced flinching
- formalin-induced flinching, second phase [1]: reduced formalin-induced flinching

SMILES: O=c1c2ccccc2n2nnc3ccc(NCCCN4CCN(CCCNc5ccc6nnn7c8ccccc8c(=O)c5c67)CC4)c1c32 [Temacrazine, reference compound]
- IC50 (HIV-1; [10]): 3.56 nM
- IC90 (HIV-1; [10]): 17.9 nM
- TI (TC50/IC50) (HIV-1): >28.1 and >27.4
- IC50 (HIV-1; 72 hr, positive control): 3.64 nM
- IC90 (HIV-1; 72 hr, positive control): 16.9 nM
- CC50 at 72 h ([2]; positive control): > 100 nM

SMILES: C#Cc1cccc(Nc2nc3cc(C(=O)[O-])ccc3c3cncnc23)c1.[Na+] [Compound 1 Na]
- IC90 [3]: 1410 nM
- TI (TC50/IC50) [3]: 35.8
- IC50 ([3]; 7-day incubation): 100 nM
- TI (TC50/IC50) (HIV-1): 87.3
- IC90 (HIV-1; 72 hr): 9080 nM
- IC50 (HIV-1; [11]): 200 nM
- CC50 [4]: 17100 nM
- IC90 [5]: 2770 nM
- TI (TC50/IC50) [5]: 3.07
- IC50 ([5]; 7-day incubation): 1150 nM
- CC50 (fresh human PBMCs): 3530 nM

SMILES: O=C([O-])c1ccc2c(c1)nc(Nc1cccc(C(F)(F)F)c1)c1nc(NC3CC3)ncc12.[Na+] [Compound 2 Na]
- IC90 [3]: 3770 nM
- TI (TC50/IC50) [3]: 59.6
- IC50 ([3]; 7-day incubation): 200 nM
- TI (TC50/IC50) (HIV-1): >30.9 and >30.7
- IC90 (HIV-1; 72 hr): > 100000 nM
- IC50 (HIV-1; [11]): 3240 nM and 3260 nM
- CC50 [4]: > 100000 nM
- IC90 [5]: 20600 nM
- TI (TC50/IC50) [5]: 2.65
- IC50 ([5]; 7-day incubation): 4520 nM
- CC50 (fresh human PBMCs): 12000 nM

SMILES: O=C(O)c1ccc2c(c1)nc(Nc1cccc(Cl)c1)c1ccncc12 [Compound K Na]
- IC50 [3, 12]: 1070 nM
- IC90 [3, 13]: 3050 nM
- TI (TC50/IC50) [3]: 7.13
- IC90 (HIV-1; Human immunodeficiency virus 1, 72 h, 72 hr): 18000 nM
- IC50 (HIV-1; Human immunodeficiency virus 1, 72 h, TNFα, reverse transcriptase after 72 hr): 700 nM
- TI (TC50/IC50) (HIV-1): 15.2
- CC50 at 72 h [2]: 10600 nM
- IC50 [5, 12]: 3490 nM
- IC90 [5, 13]: 8250 nM
- TI (TC50/IC50) [5]: 2.18
- CC50 at 7 days [6]: 7610 nM

SMILES: Cc1cn([C@H]2C[C@H](N=[N+]=[N-])[C@@H](CO)O2)c(=O)[nH]c1=O [AZT, reference compound]
- TI (TC50/IC50) [3]: >611
- IC50 ([3]; positive control): 1.64 nM
- IC90 ([3]; positive control): 6.86 nM
- HIV-1 93TH073 Clade E replication [7]: inhibition of HIV-1 93TH073 Clade E replication
- TI (TC50/IC50) [5]: >665
- IC50 ([5]; positive control): 1.5 nM
- IC90 ([5]; positive control): 7.58 nM
- CC50 (fresh human PBMCs; positive control): > 1000 nM

SMILES: O=C(O)c1ccc2c(c1)nc(Nc1cccc(C(F)(F)F)c1)c1nc(NC3CC3)ncc12 [Compound 2]
- cytotoxicity in PBMC's (fresh human PBMCs): minimal cytotoxicity

SMILES: COc1ccc2cc([C@H](C)C(=O)O)ccc2c1 [naproxen, reference compound]
- effect on CFA-induced thermal hyperalgesia [8]: significantly reversed the CFA-induced thermal hyperalgesia

SMILES: C#Cc1cccc(Nc2nc3cc(C(=O)O)ccc3c3cncnc23)c1 [Compound 1, 5-(3-ethynylphenylamino)pyrimido[4,5-c]quinoline-8-carboxylic acid]
- CLs ([9]; IV 5.4 mg/kg): 5.28 mL/min/kg
- Cp0-exp ([9]; IV 5.4 mg/kg): 29442.03 ng/mL
- Kel ([9]; IV 5.4 mg/kg): 0.0678 h⁻¹
- F(0-24 h) ([9]; PO 10.8 mg/kg): 7.2%
- F(0-Inf) ([9]; PO 10.8 mg/kg): 11.0%
- Kel ([9]; PO 10.8 mg/kg): 0.0323 h⁻¹
- AUC(0-t) ([9]; mouse, plasma, iv, 5.4 mg/kg, AUC(0-8 h), IV 5.4 mg/kg): 11200 ng·h/mL
- AUC(0-t) ([9]; mouse, plasma, iv, 5.4 mg/kg, IV 5.4 mg/kg, read-out: AUC(0-24 h)): 15300 ng·h/mL
- AUC(0-t) ([9]; mouse, plasma, po, 10.8 mg/kg, AUC(0-8 h), PO 10.8 mg/kg): 1050 ng·h/mL
- AUC(0-t) ([9]; mouse, plasma, po, 10.8 mg/kg, PO 10.8 mg/kg, read-out: AUC(0-24 h)): 2210 ng·h/mL
- AUC(0-inf) ([9]; mouse, plasma, IV 5.4 mg/kg): 17000 ng·h/mL
- Cmax ([9]; mouse, plasma, IV 5.4 mg/kg): 21800 ng/mL
- Vd ([9]; mouse, plasma, IV 5.4 mg/kg, read-out: Vd): 4.67 L/kg
- half-life ([9]; mouse, plasma, IV 5.4 mg/kg): 10.2 h
- AUC(0-inf) ([9]; mouse, plasma, PO 10.8 mg/kg): 3760 ng·h/mL
- Tmax ([9]; mouse, plasma, PO 10.8 mg/kg): 0.25 h
- Cmax ([9]; mouse, plasma, PO 10.8 mg/kg): 800 ng/mL
- half-life ([9]; mouse, plasma, PO 10.8 mg/kg): 21.5 h
